Measured values as given in patent publication US11730712B2, “Functionalized long-chain hydrocarbon mono- and di-carboxylic acids and derivatives thereof, and their use for the prevention or treatment of disease” (ESPERVITA THERAPEUTICS, INC., priority 2021, dated 2023).
“Also recorded” adds a separate entry of the source.

Key:
[1] = system: expanded HSPC / megakaryocytes; experiment: Platelet production from expanded HSPC cultured into megakaryocytes; format: cell-based; conditions: added to expanded HSPC at day 0 or day 6, cultured into megakaryocytes for 8 days
Procedure: Compound I-32 (A) and Compound I-1 (B) were added to expanded HSPC at day 0 (FIGS. 25A-25E) as they were cultured into megakaryocytes for 8 days or at day 6 (FIGS. 25F-25J). CD41a cell count (FIG. 25A), CD41aCd42b+ cell count (FIG. 25B), platelet levels (FIG. 25C), CD41a MFI (FIG. 25D) and CD41a FSC cell size (FIG. 25E) were analyzed at day 0. CD41a cell count (FIG. 25F), CD41aCd42b+ cell count (FIG. 25G), platelet levels (FIG. 25H), CD41a MFI (FIG. 25I) and CD41a FSC cell size (FIG. 25J) were analyzed at day 6.

[2] = system: Hep3B cells; experiment: Hep3B cell proliferation; format: cell-based; conditions: with or without regorafenib (1.5 μM)
Excerpt: FIG. 36 show anti-proliferative effect of illustrative compounds of the invention in Hep3B cells.
Each bar represents the mean±the SEM, n=5. *p<0.03, **p<0.002, ***p<0.0002, ****p<0.0001, One-way ANOVA followed by Tukey's multiple comparison.

[3] = system: Hepa1-6 murine hepatoma cells; experiment: Cell proliferation assay (presto blue, 72 h); format: cell-based, mouse; conditions: for Hepa1-6 cell proliferation compared to control, compound alone: 100 μM; for Hepa1-6 cell proliferation compared to control, compound alone / inhibition of Hepa1-6 cell proliferation in combination with lenvatinib vs each agent alone / inhibition of Hepa 1-6 cell proliferation in combination with regorafenib vs individual effects / inhibition of Hepa1-6 cell proliferation in combination with sorafenib vs each agent alone: 72 h; for IC50: Mus musculus, Hepa1-6, 72 h, read-out: Hepa1-6 (IC50), anti-proliferation activity; for synergism with lenvatinib (CI), Hepa1-6 cells: all tested concentrations: 1 μM and 0.3 μM to 100 μM and 30 μM; for inhibition of Hepa1-6 cell proliferation in combination with lenvatinib vs each agent alone: compound 100 μM + lenvatinib 30 μM; for inhibition of Hepa 1-6 cell proliferation in combination with regorafenib vs individual effects: compound 100 μM + regorafenib 5 μM; for inhibition of Hepa1-6 cell proliferation in combination with sorafenib vs each agent alone: compound 100 μM + sorafenib 5 μM
Procedure: Cell cultures. Hep3B (ATCC) and Hepa1-6 (ATCC) cells were seeded in 96-well plates at a density of 3000 cells/well with complete media. On day 2, media in each well was aspirated and replaced with 100 μl of fresh complete media and cells were treated with or without Compound I-1, Compound I-32, Compound I1-84, and Compound I-85, in a concentration dependent manner. Then, cells were incubated in an incubator for 72 h. On day 5, 10 μl of presto blue (Invitrogen, cat #A13261) cell viability reagent was added in each 96-well plate and incubated at 37° C. for 1-2 h. After incubation, fluorescence was measured with an excitation/emission wavelength of 560/590 nm.
Proliferation assay. Hep3B (ATCC) and Hepa1-6 (ATCC) cells were seeded in 96-well plates at a density of 3000 cells/well with complete media. On day 2, media in each well was aspirated and replaced with 100 μl of fresh complete media and cells were treated with/without testing compounds in a concentration dependent manner. Then, cells were incubated in an incubator for 72 h. On day 5, 10 μl of presto blue (Invitrogen, cat #A13261) cell viability reagent was added in each 96-well plate and incubated at 37° C. for 1-2 h. After incubation, fluorescence was measured with an excitation/emission wavelength of 560/590 nm. Anti-proliferative combination effects of Compound I-1 or Compound I-32 and regorafenib were determined in Hep3B and Hepa1-6 cells. Drug combination interaction was determined by the Chou-Talalay method (23), which is based on well-known equations for different reaction sequences and mechanisms, and different types of inhibition. These equations provide the theoretical basis for the combination index (CI)-isobologram equation that allows quantitative determination of drug interactions, where CI<1, =1, and >1 indicate synergism, additive effect, and antagonism, respectively. CI is calculated based on in vitro measurements implemented in the Compusyn software (www.combosyn.com), a platform for drug combinations pharmacodynamics with automated simulations. The software calculates CI based on the Fractional Inhibition (Fa), which is the potency expressed by the average effect values for each drug concentrations as determined by in vitro experiments. The dose-effect data entries are utilized for automated computerized analysis by the Compusyn software.
Data entered was obtained by in vitro experiments performed as follows: Hep3B or Hepa 1-6 cells were plated in a 96-well format and cell proliferation rates were determined as described above. Cells were treated with 5 doses of each test agent alone at the following concentrations: compounds of the invention dosed at 1, 5, 10, 50, or 100 μM for both Hep3B and Hepa1-6 cells, regorafenib dosed at 0.015, 0.075, 0.15, 0.75, and 1.5 μM for Hep3B cells or 0.05, 0.25, 0.5, 2.5, 5 μM for Hepa 1-6 cells. […]. Data are shown as Fa-CI plots where CI is the combination index and Fa is fractional inhibition. Results were indicated as mean±standard deviation (SD). All bar diagrams and line graphs were prepared using Graph Pad Prism 8 software. Drug synergy was calculated using the CompuSyn software.
Methods: Hep3B cells (supplied by ATCC) and Hepa1-6 cells (supplied by ATCC) were seeded in 96-well plates at a density of 3000 cells/well with complete media. On day 2, the media in each well was aspirated and replaced with 100 μL of fresh complete media, and the cells were treated in a concentration dependent manner with either Compound I-1, Compound I-32, Compound I-84, Compound I-85, sorafenib, lenvatinib, Compound I-1 in combination with sorafenib. Compound I-1 in combination with lenvatinib, Compound I-32 in combination with sorafenib, or Compound I-32 in combination with lenvatinib. The cells were then incubated in an incubator at 37° C. for 72 h. On day 5, 10 μL of presto blue (Invitrogen, cat #A13261) cell viability reagent was added to each 96-well plate and incubated at 37° C. for 1-2 h. […]

[4] = system: female Wistar Han rats; experiment: 4-day oral gavage toxicity study in female rats; conditions: for clinical chemistry: globulin concentration and albumin:globulin ratio: 100 mg/kg/day Compound I-1 or 300 mg/kg/day Compound I-1 or Compound I-32; for compound-related effects in hematology or coagulation test results / compound-related mortality, clinical observations, body weight effects, changes in food consumption / dose whose effects were considered nonadverse: female rats, 4 days; for compound-related effects in hematology or coagulation test results / compound-related mortality, clinical observations, body weight effects, changes in food consumption: 100 or 300 mg/kg/day oral gavage; for dose whose effects were considered nonadverse: oral gavage; for microscopic findings in the liver: ≥100 mg/kg/day Compound I-1 or 300 mg/kg/day Compound I-32

SMILES | platelet production [1] | effect on proliferation [2] | Hepa1-6 cell proliferation compared to control, compound alone [3] | IC50 [3] [µM] | synergism with sorafenib (CI), Hepa1-6 cells ([3]; all tested concentrations: 1 μM and 0.05 μM to 100 μM and 5 μM) | synergism with lenvatinib (CI), Hepa1-6 cells [3] | inhibition of Hepa1-6 cell proliferation in combination with lenvatinib vs each agent alone [3] | inhibition of Hepa 1-6 cell proliferation in combination with regorafenib vs individual effects [3] | inhibition of Hepa1-6 cell proliferation in combination with sorafenib vs each agent alone [3] | clinical chemistry: globulin concentration and albumin:globulin ratio [4] | microscopic findings in the kidney ([4]; 300 mg/kg/day) | compound-related effects in hematology or coagulation test results [4] | compound-related mortality, clinical observations, body weight effects, changes in food consumption [4] | dose whose effects were considered nonadverse [4] [mg/kg/day] | microscopic findings in the liver [4] | synergism with sorafenib (CI), Hepa1-6 cells ([3]; compound and sorafenib: 1 μM and 0.05 μM, 10 μM and 0.25 μM, 50 μM and 2.5 μM, 100 μM and 5 μM) | clinical chemistry: serum urea nitrogen concentration ([4]; 300 mg/kg/day)
CC(C)(CCCCc1ccc(CCCCC(C)(C)C(=O)O)cc1)C(=O)O [Compound I-1, 6-[4-(5-carboxy-5-methylhexyl)-phenyl]-2,2-dimethylhexanoic acid] | do not significantly affect | anti-proliferation effect | inhibited Hepa1-6 cell proliferation compared to control | > 100 | synergism | synergism | significantly greater inhibition of Hepa1-6 cell proliferation | greater inhibition of cell proliferation compared to their individual effects | significantly greater inhibition of Hepa1-6 cell proliferation | minimally lower globulin concentration and minimally higher albumin:globulin ratio | tubular degeneration/necrosis, tubular regeneration, and increased mitoses | No Compound I-1- or Compound I-32-related effects in hematology or coagulation test results were identified | No Compound I-1- or Compound I-32-related mortality, clinical observations, body weight effects, or changes in food consumption were noted | 100 | increase in mitoses in hepatocytes |  | 
CC(C)(CCCCc1cccc(CCCCC(C)(C)C(=O)O)c1)C(=O)O [Compound I-32, 6-[3-(5-carboxy-5-methylhexyl)-phenyl]-2,2-dimethylhexanoic acid] | do not significantly affect | anti-proliferation effect | inhibited Hepa1-6 cell proliferation compared to control | > 100 |  | synergism | significantly greater inhibition of Hepa1-6 cell proliferation | greater inhibition of cell proliferation compared to their individual effects | significantly greater inhibition of Hepa1-6 cell proliferation | minimally lower globulin concentration and minimally higher albumin:globulin ratio |  | No Compound I-1- or Compound I-32-related effects in hematology or coagulation test results were identified | No Compound I-1- or Compound I-32-related mortality, clinical observations, body weight effects, or changes in food consumption were noted | 300 | increase in mitoses in hepatocytes; also recorded: periportal hepatocyte vacuolation | significant synergism | Minimally lower serum urea nitrogen concentration
